Source: ChEMBL document CHEMBL1150859, “Gelliusterols A--D, new acetylenic sterols from a sponge, Gellius species” (J Nat Prod, 2001)
In brackets after ≈: the same amount, converted by molar mass.

How the values were obtained:
Format in all cases: functional, cell-based
HT-29 = assay: Cytotoxicity against human HT-29 cells
P388 = assay: Cytotoxicity against mouse P388 cells
A549 = assay: Cytotoxicity against human A549 cells
DU-145 = assay: Cytotoxicity against human DU145 cells
SK-MEL-28 = assay: Cytotoxicity against human SK-MEL-28 cells

Row | Structure (SMILES) | IC50 (HT-29) [µg/mL] | IC50 (P388) [µg/mL] | IC50 (A549) [µg/mL] | IC50 (DU-145) [µg/mL] | IC50 (SK-MEL-28) [µg/mL]
1 | CC#CC[C@@H](C)[C@H]1CC[C@H]2[C@@H]3C(=O)C=C4C[C@@H](O)CC[C@]4(C)[C@H]3CC[C@]12C [GELLIUSTEROL B] | > 1 | > 1 | > 1 | > 1 | > 1
2 | CC#CC[C@@H](C)[C@H]1CC[C@H]2[C@@H]3[C@H](O)C=C4C[C@@H](O)CC[C@]4(C)[C@H]3CC[C@]12C [GELLIUSTEROL A] | > 1 | > 1 | > 1 | > 1 | > 1
3 | CC(C)C#CC[C@@H](C)[C@H]1CC[C@H]2[C@@H]3C(=O)C=C4C[C@@H](O)CC[C@]4(C)[C@H]3CC[C@]12C [GELLIUSTEROL C] | 0.5 (≈ 1.26 µM) | > 1 | > 1 | > 1 | > 1
